One assay concerns CD19^+ Namalwa cells. The assay is described as follows: In vitro cytotoxicity, MTT proliferation assay on Namalwa cells. The class given is cell-based. Conditions: Homo sapiens, 48 hours, mean ± SD, read-out: IC50 (μM DXR). The protocol:
In vitro cytotoxicity of free DXR and various liposomal formulations was evaluated using Namalwa cells with an in vitro proliferation assay as described in Example 6. In addition to the targeted, pH-sensitive liposomes, conventional, non-pH sensitive sterically stabilized liposome (DXR-SL) and doxorubicin in free form were also tested. Each of the test formulations was incubated with the Namalwa cells under controlled conditions for 48 hours. At the end of the incubation time, cytotoxicity was expressed as the inhibitory concentration, that is the concentration required for a 50% inhibition of cell growth (IC50).
A comparison of the in vitro cytotoxicity of free doxorubicin and various liposomal formulations (Table 1) was performed on Namalwa cells with an in vitro proliferation assay using a tetrazolium dye (MTT -3-(4,5-dimethylthiazol-2-yl)-2,5 diphenyltetrazolim bromide; Mosmann, J. J. Immunol Methods, 65:55 (1983)), as described in Lopes de Menezes et al, Cancer Res., 58:3320 (1998).
Briefly, 5×10^5 Namalwa cells were plated in 96-well plates and incubated with either free DXR or various formulations of liposome-encapsulated doxorubicin with or without anti-CD19 mAb. […] At the end of the incubation period, tetrazolium dye was added, and the plates were read on a Titertek Multiskan Plus (Flow Laboratories, Inc. Mississauga, Ontario, Canada) at dual wavelengths of 570 and 650 nm. […]

In assay [1] the test system is CD 19± human B-lymphoma (Namalwa) cells. The experiment in a line: Survival of SCID mice implanted i.v. with Namalwa cells. The assay is classed as in vivo. The protocol: In another study performed in support of the invention, mice were treated with targeted, pH-sensitive liposomes having releasable PEG chains. Entrapped in the liposomes was the therapeutic agent doxorubicin (DXR). As described in Example 9, the mice were treated with a single dose of 3 mg DXR/kg in free form or entrapped in liposomes. The liposome formulations are summarized in Table 2 and detailed in Example 8.
Namalwa cells were passaged i.p. in CB-17/ICR Tac SCID mice (Charles River Laboratories, Quebec, Canada) to develop a more virulent strain with reproducible tumor take (Lopes de Menezes et al., Cancer Res., 58:3320 (1998)). Namalwa cells were harvested in sterile PBS and implanted into SCID mice. Cell viability was assessed by dye exclusion using Trypan Blue dye before and after the implantation process.
SCID mice (5 mice/group) (Charles River Laboratories), 6–8 weeks of age, were implanted with Namalwa cells i.v. (5×10^6) and treated i.v. at 24 h after implantation with a single dose of 3 mg doxorubicin/kg as either free doxorubicin, doxorubicin-SIL[anti-CD19] or targeted DXR-loaded DOPE/CHEMS formulations stabilized with either mPEG-DSPE or mPEG-S-S-DSPE. The treatment regimens were as follows:
All treatment groups received 3 mg doxorubicin/kg. Mice were monitored routinely for weight loss, and euthanized as they became moribund; survival times were recorded. […]

For another assay, the system named is Namalwa cells. The experiment in a line: Nuclear accumulation of doxorubicin in Namalwa cells. Conditions: 8 μM DXR, 0-12 hours. The assay is classed as cell-based, human. The protocol: Nuclear accumulation of doxorubicin was determined as described in Example 7. Briefly, Namalwa cells, maintained under logarithmic growth conditions were treated with doxorubicin-entrapped liposome formulations at a doxorubicin concentration of 8 μM. At various time points (0, 2, 4, 8, 12 hours), an aliquot of the treated cells was ruptured to recover the nuclei. The DNA in the nuclei were enzymatically digested and doxorubicin fluorescence was measured.
Nuclear accumulation of doxorubicin was determined according to the method of Kirchmeier et al. (J. Liposome Res., 11:15 (2001)). Briefly, 4.5×10^8/500 ml Namalwa cells, maintained under logarithmic growth conditions in RPMI 1640 supplemented with 10% FBS, were treated with either free DXR or various liposomal DXR formulations at a DXR concentration of 8 μM.
At various time points (0, 2, 4, 8, 12 hours), 100 ml of cells was pelleted by centrifugation at 1000 rpm for 10 min and washed with 20 ml of TEA buffer. […] After removal of the supernatant, the pellet was diluted to 1 ml with TEA buffer, then vortexed and sonicated until the nuclei were evenly dispersed, as determined by visual inspection.
For each time point, three aliquots of the nuclear fractions (0.2 ml each) were placed in 1.3 ml TEA. […] Following digestion at 22° C. for 2 hours, the doxorubicin fluorescence was recorded (excitation at 480 nm and emission at 595 nm). […]

Usually IC50 stands for the concentration at which inhibition is half-maximal.

The structures appear in SMILES notation.

`COc1cccc2c1C(=O)c1c(O)c3c(c(O)c1C2=O)C[C@@](O)(C(=O)CO)C[C@@H]3O[C@H]1C[C@H](N)[C@H](O)[C@H](C)O1` [Free DXR, doxorubicin]: the IC50 with CD19^+ Namalwa cells amounted to 0.8 ± 0.7 µM. Besides, in assay [1] (relative to mean survival time of control mice, 3 mg DXR/kg i.v.), the “Increased Life Span (% ILS)” value was 9.5%. Moreover, in assay [1] (single i.v. dose 3 mg DXR/kg 24 h after i.v. implantation, 5 mice/group), the “Mean Survival Time (MST ± S.D. (days))” value turned out to be 23.0 ± 1.4 days. Moreover, in the assay on Namalwa cells, the “nuclear accumulation of doxorubicin (in words)” value was “fastest rate”.
